Patent US20210236476A1, “METHODS OF TREATING CANCER WITH SMALL MOLECULE PD-L1 INHIBITORS” (CHEMOCENTRYX, INC., priority 2018, published 2021)

These compounds were tested against T1, human PD-L1 / human PD-1 interaction (Homo sapiens, UniProt Q9NZQ7) (assay: ELISA of PD-1/PD-L1 interaction).
T1 construct: purchased R&D (PD-L1); ACRO Biosystems (PD-1, biotin)
Format: binding
Procedure: The activity of Compound 1.041 was assessed with an ELISA assay assessing the direct binding of recombinant PD-1 and PD-L1 proteins (FIG. 1A), a dimerization ELISA assay assessing the direct binding/dimerization of recombinant PD-L1 proteins (FIG. 1B), a cell based assay measuring the downstream signaling following the interaction of PD-1 and PD-L1 using a Luciferase reporter assay with cell lines overexpressing PD-1 and PD-L1 (FIG. 1C), and a mixed lymphocyte reaction assay measuring the functional outcome of upregulation of IFNg secretion, using allogenic primary human immune cells (FIG. 1D). Briefly, the mixed lymophocyte reaction assay was performed as follows: Dendritic cells and CD4+T Cells from unmatched donors were cultured together for 5 days in 96 well-flat bottom plates. Test compound was added as indicated at starting concentration of 1 μM with 1:4 dilutions with DMSO. Supernatants were harvested after 5 days of incubation and detection of human IFNg was performed by ELISA. […]
96 Well plates were coated with 1 μg/mL of human PD-L1 (obtained from R&D) in
PBS overnight at 4° C. The wells were then blocked with 2% BSA in PBS (WN) with 0.05% TWEEN-20 for 1 hour at 37° C. The plates were washed 3 times with PBS/0.05% TWEEN-20 and the compounds were serial diluted (1:5) in dilution medium and added to the ELISA plates. Human PD-1 and biotin 0.3μg/mL (ACRO Biosystems) were added and incubated for 1 hour at 37° C. then washed 3 times with PBS/0.05% TWEEN-20. A second block was performed with 2% BSA in PBS (WN)/0.05% TWEEN-20 for 10 min at 37° C. and was washed 3 times with PBS/0.05% TWEEN-20. Streptavidin—HRP was added for 1 hour at 37° C. then washed 3 times with PBS/0.05% TWEEN-20. TMB substrate was added and reacted for 20 min at 37° C. A stop solution (2 N aqueous H2SO4) was added. The absorbance was read at 450 nm using a micro-plate spectrophotometer.

T1 sequence (Q9NZQ7 19-239 limits assumed): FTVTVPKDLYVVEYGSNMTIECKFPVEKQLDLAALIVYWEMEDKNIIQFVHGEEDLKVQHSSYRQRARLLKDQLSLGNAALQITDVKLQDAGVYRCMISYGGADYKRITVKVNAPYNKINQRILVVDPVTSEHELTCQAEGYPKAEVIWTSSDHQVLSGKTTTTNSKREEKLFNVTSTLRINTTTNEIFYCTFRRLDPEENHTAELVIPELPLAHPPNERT

SMILES | IC50
N#Cc1cncc(COc2cc(O[C@H]3CCc4c(-c5cccc(OCCCN6CCC(O)CC6)c5Cl)cccc43)c(Cl)cc2CNC[C@@H]2CCC(=O)N2)c1 | < 5 nM
N#Cc1cncc(COc2cc(O[C@H]3CCc4c(-c5cccc(OCCCN6CCC(F)CC6)c5Cl)cccc43)c(Cl)cc2CN[C@H]2CCC[C@H]2O)c1 | < 5 nM
Cc1c(OCCCN2CCC(O)CC2)cccc1-c1cccc2c1CC[C@@H]2Oc1cc(OCc2cncc(C#N)c2)c(CN2CC[C@@H](O)C2)cc1Cl | < 5 nM
N#Cc1cncc(COc2cc(O[C@H]3CCc4c(-c5cccc(OCCCN6CC7(CC(F)C7)C6)c5Cl)cccc43)c(Cl)cc2CN[C@@H]2CCC[C@@H]2O)c1 | < 5 nM
Cc1c(OCCCN2CCC(F)CC2)cccc1-c1cccc2c1CC[C@@H]2Oc1cc(OCc2cncc(C(N)=O)c2)c(CN(C)CCC(=O)O)cc1Cl | < 5 nM
N#Cc1cncc(COc2cc(O[C@H]3CCc4c(-c5cccc(OCCCN6CC7(CC(O)C7)C6)c5Cl)cccc43)c(Cl)cc2CN[C@@H]2CCC[C@@H]2O)c1 | < 5 nM
N#Cc1cncc(COc2cc(O[C@H]3CCc4c(-c5cccc(OCCCN6CCC(F)CC6)c5Cl)cccc43)c(Cl)cc2CN[C@H]2CCC[C@@H]2O)c1 | < 5 nM
N#Cc1cncc(COc2cc(O[C@H]3CCc4c(-c5cccc(OCCCN6CC7(CCC7)C6)c5Cl)cccc43)c(Cl)cc2CN[C@@H]2CCCC[C@@H]2O)c1 | < 5 nM
CC(C)N1CCC(COc2cccc(-c3cccc4c3CC[C@@H]4Oc3cc(OCc4cncc(C#N)c4)c(CN[C@H]4CCC(=O)NC4)cc3Cl)c2Cl)C1 (stereo partly shown) | < 5 nM
Cc1c(OCCCN2CCC2(C)C)cccc1-c1cccc2c1CC[C@@H]2Oc1cc(OCc2cc(C#N)cc(C#N)c2)c(CN[C@H]2CCC(=O)NC2)cc1Cl | < 5 nM
C[C@@H](O)[C@H](NCc1cc(Cl)c(O[C@H]2CCc3c(-c4cccc(OCCCN5CCC(O)CC5)c4F)cccc32)cc1OCc1cncc(C#N)c1)C(=O)O | < 5 nM
N#Cc1cncc(COc2cc(O[C@H]3CCc4c(-c5cccc(OCCCN6CC(O)C6)c5Cl)cccc43)c(Cl)cc2CN2CCC(O)CC2)c1 | < 5 nM
N#Cc1cncc(COc2cc(O[C@H]3CCc4c(-c5cccc(OCCCN6CC7(CC(F)C7)C6)c5Cl)cccc43)c(Cl)cc2CN[C@@H]2CC[C@H]2O)c1 | < 5 nM
Cc1c(OCCCN2CCC(F)CC2)cccc1-c1cccc2c1CC[C@@H]2Oc1cc(OCc2cncc(C#N)c2)c(CNC[C@H]2CCC(=O)N2)cc1Cl | < 5 nM
N#Cc1cncc(COc2cc(O[C@H]3CCc4c(-c5cccc(OCCCN6CC7(CC(F)C7)C6)c5Cl)cccc43)c(Cl)cc2CN[C@H]2CCC[C@@H]2O)c1 | < 5 nM
Cc1c(OCCCN2CCC(O)CC2)cccc1-c1cccc2c1CCC2Oc1cc(OCc2cncc(C#N)c2)c(CN[C@H](C(=O)O)[C@@H](C)O)cc1Cl (stereo partly shown) | < 5 nM
Cc1c(OCCCN2[C@@H](C)CC[C@@H]2C)cccc1-c1cccc2c1CC[C@@H]2Oc1cc(OCc2cc(C#N)cc(C#N)c2)c(CN[C@H]2CCC(=O)NC2)cc1Cl | < 5 nM
CCOc1cc(O[C@H]2CCc3c(-c4cccc(OCCCN5CCC[C@@H]5C(C)C)c4C)cccc32)c(Cl)cc1CNC[C@@H]1CCC(=O)N1 | < 5 nM
CCOc1cc(O[C@H]2CCc3c(-c4cccc(OCCCN5[C@H](C)CC[C@H]5C)c4C)cccc32)c(Cl)cc1CN1CCCC[C@H]1C(=O)O | 5 to 500 nM
Cc1c(OCCCN2CC[C@H](F)C[C@@H]2C)cccc1-c1cccc2c1CC[C@@H]2Oc1cc(OCc2cc(C#N)cc(C#N)c2)c(CN[C@H]2CCC(=O)NC2)cc1Cl | 5 to 500 nM
Cc1c(OCCCN2CCC(O)CC2)cccc1-c1cccc2c1CC[C@@H]2Oc1cc(OCc2cncc(C#N)c2)c(CN[C@@H]2CCCC[C@@H]2O)cc1Cl | < 5 nM
N#Cc1cncc(COc2cc(O[C@H]3CCc4c(-c5cccc(OCCCN6CCC(F)CC6)c5Cl)cccc43)c(Cl)cc2CN[C@H]2CC[C@@H]2O)c1 | < 5 nM
N#Cc1cncc(COc2cc(O[C@H]3CCc4c(-c5cccc(OCCCN6CCC(O)CC6)c5Cl)cccc43)c(Cl)cc2CN[C@@H](CO)C(=O)O)c1 | < 5 nM
C[C@@H](O)[C@H](NCc1cc(Cl)c(O[C@H]2CCc3c(-c4cccc(OCCCN5CC(O)C5)c4Cl)cccc32)cc1OCc1cncc(C#N)c1)C(=O)NS(C)(=O)=O | < 5 nM
Cc1c(OCCCN2CC[C@@H](O)C2)cccc1-c1cccc2c1CC[C@@H]2Oc1cc(OCc2cncc(C#N)c2)c(CN[C@H](C(=O)O)[C@@H](C)O)cc1Cl | < 5 nM
N#Cc1cncc(COc2cc(O[C@H]3CCc4c(-c5cccc(OCCCN6CCC(F)CC6)c5Cl)cccc43)c(Cl)cc2CN2CC[C@@H](F)C2)c1 | < 5 nM

SMILES | IC50
Cc1c(OCCCN2CCC2)cccc1-c1cccc2c1CC[C@@H]2Oc1cc(OCc2cc(C#N)cc(C#N)c2)c(CNC[C@H]2CCC(=O)N2)cc1Cl | < 5 nM
Cc1c(OCCCN2CC(C)(O)C2)cccc1-c1cccc2c1CC[C@@H]2Oc1cc(OCc2cncc(C#N)c2)c(CNCC2CCC(=O)N2)cc1Cl (stereo partly shown) | < 5 nM
Cc1c(OCCCN2CCC(F)CC2)cccc1-c1cccc2c1CC[C@@H]2Oc1cc(OCc2cc(C#N)cc(C#N)c2)c(CN[C@@H]2CCC[C@H]2O)cc1Cl | < 5 nM
C[C@@H](O)[C@H](NCc1cc(Cl)c(O[C@H]2CCc3c(-c4cccc(OCCCN5CCC(O)CC5)c4Cl)cccc32)cc1OCc1cncc(C#N)c1)C(=O)O | < 5 nM
Cc1c(OCCCN2CCC(O)CC2)cccc1-c1cccc2c1CC[C@@H]2Oc1cc(OCc2cncc(C#N)c2)c(CN2CCC(C)(O)CC2)cc1Cl | < 5 nM
CC1(O)CCN(Cc2cc(Cl)c(O[C@H]3CCc4c(-c5cccc(OCCCN6CCC(F)CC6)c5Cl)cccc43)cc2OCc2cncc(C#N)c2)CC1 | < 5 nM
Cc1c(OCCCN2CC(O)C2)cccc1-c1cccc2c1CC[C@@H]2Oc1cc(OCc2cncc(C#N)c2)c(CNCC2CCC(=O)N2)cc1Cl (stereo partly shown) | < 5 nM
Cc1c(OCCCN2CCCC[C@@H]2C)cccc1-c1cccc2c1CC[C@@H]2Oc1cc(OCc2cc(C#N)cc(C#N)c2)c(CN[C@H]2CCC(=O)NC2)cc1Cl | < 5 nM
N#Cc1cc(C#N)cc(COc2cc(O[C@H]3CCc4c(-c5cccc(OCCCN6CCC(F)CC6)c5Cl)cccc43)c(Cl)cc2CNC[C@H]2CCC(=O)N2)c1 | < 5 nM
C[C@@](CO)(NCc1cc(Cl)c(O[C@H]2CCc3c(-c4cccc(OCCCN5CCC(O)CC5)c4F)cccc32)cc1OCc1cncc(C#N)c1)C(=O)O | < 5 nM
C[C@@H](O)[C@H](NCc1cc(Cl)c(O[C@H]2CCc3c(-c4cccc(OCCCN5CCCCC5)c4Cl)cccc32)cc1OCc1cncc(C#N)c1)C(=O)NS(C)(=O)=O | < 5 nM
Cc1c(OCCCN2CCC(O)CC2)cccc1-c1cccc2c1CC[C@@H]2Oc1cc(OCc2cncc(C#N)c2)c(CN2CC(O)C2)cc1Cl | < 5 nM
Cc1c(OCCCN2CCC(C)CC2)cccc1-c1cccc2c1CC[C@@H]2Oc1cc(OCc2cc(C#N)cc(C#N)c2)c(CN[C@H]2CCC(=O)NC2)cc1Cl | 5 to 500 nM
Cc1c(OCCCN2CCC(O)CC2)cccc1-c1cccc2c1CC[C@@H]2Oc1cc(OCc2cncc(C#N)c2)c(CNCC(C)(C)O)cc1Cl | < 5 nM
CCOc1cc(O[C@H]2CCc3c(-c4cccc(OCCCN5[C@H](C)CC[C@H]5C)c4C)cccc32)c(Cl)cc1CNC[C@@H]1CCC(=O)N1 | < 5 nM
Cc1c(OCCCN2CC3(CC(F)C3)C2)cccc1-c1cccc2c1CC[C@@H]2Oc1cc(OCc2cc(C#N)cc(C#N)c2)c(CN[C@H]2CCC(=O)NC2)cc1Cl | < 5 nM
Cc1c(OCCCN2[C@H](C)CCC[C@@H]2C)cccc1-c1cccc2c1CC[C@@H]2Oc1cc(OCc2cc(C#N)cc(C#N)c2)c(CN[C@H]2CCC(=O)NC2)cc1Cl | 5 to 500 nM
N#Cc1cncc(COc2cc(O[C@H]3CCc4c(-c5cccc(OCCCN6CC7(C6)CC(F)(F)C7)c5Cl)cccc43)c(Cl)cc2CN[C@@H]2CC[C@H]2O)c1 | < 5 nM
N#Cc1cncc(COc2cc(O[C@H]3CCc4c(-c5cccc(OCCCN6CC7(C6)CC(F)(F)C7)c5Cl)cccc43)c(Cl)cc2CN[C@H]2CCC[C@@H]2O)c1 | < 5 nM
Cc1c(OCCCN2CCC(F)CC2)cccc1-c1cccc2c1CC[C@@H]2Oc1cc(OCc2cc(C#N)cc(C#N)c2)c(CNCC(=O)NS(C)(=O)=O)cc1Cl | < 5 nM
N#Cc1cncc(COc2cc(O[C@H]3CCc4c(-c5cccc(OCCCN6CCC(F)CC6)c5Cl)cccc43)c(Cl)cc2CN2CC3(C2)NC(=O)NC3=O)c1 | < 5 nM
Cc1c(OCCCN2CCC(O)CC2(C)C)cccc1-c1cccc2c1CC[C@@H]2Oc1cc(OCc2cc(C#N)cc(C#N)c2)c(CN[C@H]2CCC(=O)NC2)cc1Cl (stereo partly shown) | < 5 nM
N#Cc1cncc(COc2cc(O[C@H]3CCc4c(-c5cccc(OCCCN6CCCCC6)c5Cl)cccc43)c(Cl)cc2CNC[C@H]2CCC(=O)N2)c1 | < 5 nM
Cc1c(OCCCN2CCC(C)(F)CC2)cccc1-c1cccc2c1CC[C@@H]2Oc1cc(OCc2cc(C#N)cc(C#N)c2)c(CN[C@@H]2CCC[C@H]2O)cc1Cl | 5 to 500 nM
N#Cc1cncc(COc2cc(O[C@H]3CCc4c(-c5cccc(OCCCN6CC7(C6)CC(F)(F)C7)c5Cl)cccc43)c(Cl)cc2CN[C@@H]2CCC[C@@H]2O)c1 | < 5 nM
Cc1c(OCCCN2CCCCC2)cccc1-c1cccc2c1CC[C@@H]2Oc1cc(OCc2cncc(C#N)c2)c(CNC[C@@H]2CCC(=O)N2)cc1Cl | < 5 nM
